Results reported in paper PMC7356390, “Dehydrozingerone, a Curcumin Analog, as a Potential Anti-Prostate Cancer Inhibitor In Vitro and In Vivo” (Molecules, 2020).

Key:
PLS10 cells [1] = experiment: Cell cycle analysis (Guava cycle assay); assay type: cell-based, rat; conditions: 48 h
Method: Cells were treated with Cur (0–20 μM) and DZG (0–200 μM) for 48 h. Cells were harvested for analysis of the cell cycle distribution by the Guava cycle (a,b), while cyclin D1 expression was determined by Western blot analysis (c,d). The level of protein expression was quantified by IMAGE J software. Data are presented as mean ± S.D. of three independent experiments. * p < 0.05 and ** p < 0.01 vs. control (one-way ANOVA, Dunnett’s multiple comparisons test, tested groups vs. control group). TEXT PRINTED IN THE PICTURE: (a) Cur: G1: 39.76±7.07 (Cur (μM): 5); S: 15.20±2.22 (Cur (μM): 5); G2/M: 45.02±8.26 (Cur (μM): 5); G1: 43.45±4.60 (Cur (μM): 10); S: 15.45±1.20 (Cur (μM): 10); G2/M: 40.90±6.08 (Cur (μM): 10); G1: 41.00±2.40 (Cur (μM): 15); S: 16.35±2.05 (Cur (μM): 15); G2/M: 42.60±4.67 (Cur (μM): 15); G1: 46.28±4.32 (Cur (μM): 20); S: 13.68±2.05 (Cur (μM): 20); G2/M: 43.10±5.50 (Cur (μM): 20) | (b) DZG: G1: 36.75±0.35 (DZG (μM): 50); S: 16.30±0.71 (DZG (μM): 50); G2/M: 46.95±0.35 (DZG (μM): 50); G1: 36.73±3.41 (DZG (μM): 100); S: 17.17±1.29 (DZG (μM): 100); G2/M: 46.10±2.78 (DZG (μM): 100); G1: 42.88±7.45 (DZG (μM): 150); S: 17.90±1.82 (DZG (μM): 150); G2/M: 39.25±6.13 (DZG (μM): 150); G1: 52.95±7.52 (DZG (μM): 200); S: 16.23±1.02 (DZG (μM): 200); G2/M: 31.00±6.67 (DZG (μM): 200) DOUBTS OF THE COPYIST ABOUT THIS PICTURE: Control columns (panel a: G1: 38.86±4.93, S: 14.52±1.90, G2/M: 46.60±5.74; panel b: G1: 35.93±2.45, S: 15.90±2.11, G2/M: 48.18±2.51) are printed but left out of lines, as Control is not a substance
The PLS10 cells (1.0 × 10^5 cells per well) were plated into a 6-well plate overnight. Then, cells were treated with increasing concentrations of Cur (0–20 µM) or DZG (0–200 µM) in the present of 0.5% DMSO (vehicle control) for the next 48 h. Cell morphology was investigated and photographed under a microscope. The cell cycle distribution was determined using a Guava cycle assay (Guava Technologies, Hayward, CA, USA) according to the manufacturer’s protocols. Briefly, the cells were removed by trypsinization, and the cell suspension was fixed in ice-cold 70% methanol at −20°C. After that, the methanol was removed, and the cells were washed with PBS before being stained with a Guava cycle reagent for 30 min. Cell cycle distribution was determined on a Guava PCA Instrument using Guava®ViacountTM Software (Merck Ltd., Darmstadt, Germany).

PLS10 cells [2] = system: PLS10 cells; set-up: method as in PMID 30499149; conditions: read-out: IC50 of Cur on PLS10 cells (previous study); cited from earlier work
HT-29 cells = system: HT-29 cells; set-up: method as in PMID 23245566; conditions: cited from earlier work
[3] = intraperitoneal administration of 100 mg/kg; cited from earlier work

COc1cc(/C=C/C(=O)CC(=O)/C=C/c2ccc(O)c(OC)c2)ccc1O [Cur, Curcumin]
G1 phase cell population (PLS10 cells [1]; Cur 20 µM): 46% | IC50 (PLS10 cells [2]): 26.5 ± 1.8 µM

COc1cc(/C=C/C(C)=O)ccc1O [DZG, (E)-4-(4-hydroxy-3-methoxyphenyl)-but-3-en-2-one]
G1 phase cell population (PLS10 cells [1]; DZG 150 µM): 43% | G2/M phase cell population (PLS10 cells [1]; DZG 150 µM): 39% | G1 phase cell population (PLS10 cells [1]; DZG 200 µM): 53% | G2/M phase cell population (PLS10 cells [1]; DZG 200 µM): 31% | concentration range that suppressed proliferation of HT-29 cells (G2/M arrest) (HT-29 cells): 250 to 500 µM | effect on serum aspartate aminotransferase, alanine transaminase, serum creatinine, blood urea and lactate dehydrogenase [3]: no effect
